pKd: −log10 of the molar value.
What was measured:
[1] = tested on: PH domains whose lipid binding properties were investigated in FIG. 2 (GST fusions); assay: Protein-lipid overlay; settings: data not shown
Method: (§1) FIG. 2. Phosphoinositide binding properties of the novel PH domains. The ability of the indicated GST fusion proteins to bind a variety of phosphoinositides was analysed using a protein-lipid overlay. Serial dilutions of the indicated phosphoinositides (100 pmol, 50 pmol, 25 pmol, 12.5 pmol, 6.3 pmol, 3.1 pmol and 1.6 pmol) were spotted onto a nitrocellulose membranes which were then incubated with the purified GST fusion proteins. The membranes were washed and the GST-fusion proteins bound to the membrane by virtue of their interaction with lipid were detected using a GST antibody. A representative of at least 3 separate experiments carried out is shown.
(§2) Protein-Lipid overlay. To assess the phosphoinositide binding properties of each PH domain, a protein-lipid overlay assay was performed using the GST fusion proteins as described previously. Briefly, 1 μl of lipid solution containing 1-100 pmol of phospholipids dissolved in a mixture of choroform:methanol:water (1:2:0.8) was spotted onto Hybond-C extra membrane and allowed to dry at room temperature for 1 h. The membrane was blocked in 3% (by mass) fatty acid-free BSA in TBST (50 mM Tris/HCl pH 7.5, 150 mM NaCl and 0.1% Tween-20 (by vol) for lh. The membrane was then incubated overnight at 4° C. with gentle agitation in the same solution containing 0.2 μg/ml of the indicated GST fusion protein. The membranes were washed 6 times over 30 min in TBST and then incubated for 1 h with 1/1000 dilution of anti-GST monoclonal antibody (Sigma). The membranes were washed as before, then incubated for 1 h with 1/5000 dilution of anti-mouse-HRP conjugate (Pierce). Finally, the membranes were washed 12 times over 1 h in TBST and the GST-fusion protein bound to the membrane by virtue of its interaction with phospholipid was detected by enhanced chemiluminescence.

[2] = tested on: 6 of the PH domains identified (GST fusions); assay: Phosphoinositide binding of PH domains (protein-lipid overlay or surface plasmon resonance); settings: data not shown
Method: as §2, with “chemiluminescence. […]” for “chemiluminescence.”
We studied the specificity and affinity of interaction of the PH domains for phosphoinositide lipids using either a “protein-lipid overlay” assay (FIG. 2) or the more quantitative surface plasmon resonance based approach (Table 2). […]

[3] = molecular target: T1, human PEPP1 PH domain (Ser-Ala-Ser to Arg-Pro-Gln, accession N31123), GST fusion (Homo sapiens, UniProt Q9H4M7); assay: Surface plasmon resonance (BIACore), GST fusion binding to phosphoinositide in supported lipid monolayer; settings: supported phosphatidylcholine monolayers, 1:1 binding model, NB, no binding detected, read-out: Apparent Kd
T1 construct: DNA probe corresponding to the N-terminal 15 to 169 residues of PEPP1; made in house; host or cells: E. coli BL21 (pGEX4T-1)
Text: (§3) Cloning of PH domains and preparation of expression constructs. All the human and mouse EST's were obtained from the I.M.A.G.E. Consortium and sequenced. The plant EST (accession number T04439) encoding a full length clone of AtPH1 was obtained from the Arabidopsis Biological Research. Centre (Ohio University). The sequence of each EST was verified and the full length PH domain of each EST was amplified by PCR using the Hi-fidelity PCR system with primers designed to incorporate a Kozak site, an initiating ATG codon followed by a myc epitope tag and a stop codon after the PH domain. […]
(§4) Expression of GST-PH domains in E.coli. The pGEX4T-1 constructs encoding the PH domains of FAPP1, AtPH1, PEPP1, LL5α, LL5β, evectin-2 and PH30 were transformed into BL21 E.coli cells and a 0.5 L culture was grown at 37° C. in Luria Broth containing 100 μg/ml ampicillin, until the absorbance at 600 nm was 0.6. […]
(§5) Kinetic analyses of the interactions between the GST PH domain fusions and the polyphosphoinositides were made using surface plasmon resonance based procedures as described previously, with the following modifications. […] Data were analysed using the bimolecular interaction model and the global fitting feature of the BIAevaluation 3 software for several sensorgrams at different protein concentrations. […]

[4] = molecular target: human evectin-2 PH domain (residues 1 to 167), GST fusion (Homo sapiens, UniProt Q96CS7); assay: Protein-lipid overlay; type: binding; settings: FIG. 2
Method: as §1, §3

[5] = tested on: GST-GRP1; settings: control; cited from earlier work
[6] = molecular target: T2, mouse TAPP2 C-terminal PH domain (residues 174 to 425), GST fusion (Mus musculus, UniProt Q9ERS5); assay: Protein-lipid overlay; type: binding; settings: protein-lipid overlay (FIG. 2)
T2 construct: made in house; host or cells: human embryonic kidney 293 cells (pEBG-2T)
Method: as §1
(§6) FIG. 4. Comparison of the phosphoinositide binding properties of the N-terminal and C-terminal PH domains of TAPP1 and TAPP2. The ability of wild type and mutant forms of full length (FL) and isolated N-terminal (NT) and C-terminal (CT) PH domains of TAPP1 and TAPP2 GST-fusion proteins to interact with phosphoinositides were analysed using a protein-lipid overlay. Serial dilutions of the indicated phosphoinositides (100 pmol, 50 pmol, 25 pmol, 12.5 pmol, 6.3 pmol, 3.1 pmol and 1.6 pmol) were spotted onto a nitrocellulose membrane which was then incubated with the indicated purified GST fusion proteins. The membranes were washed and the GST-fusion proteins bound to the membrane by virtue of their interactions with lipid were detected using a GST antibody. A representative experiment of three is shown. The isolated N-terminal PH domain of human TAPP1 comprises residues 1 to 147, the isolated C-terminal PH domain of human TAPP1 comprises residues 95 to 404, the isolated N-terminal PH domain of mouse TAPP2 comprises residues 1 to 131 and the isolated C-terminal PH of mouse TAPP2 comprises residues 174 to 425.
as §2, with “Briefly, 1 μl of lipid solution containing 1-100 pmol of phospholipids dissolved in a mixture of choroform:methanol:water (1:2:0.8) was spotted onto Hybond-C extra membrane and allowed to dry at room temperature for 1 h.” left out

[7] = molecular target: human TAPP1 C-terminal PH domain (residues 95 to 404), GST fusion (Homo sapiens, UniProt Q9HB21); assay: Protein-lipid overlay; type: binding; settings: protein-lipid overlay (FIG. 2)
Method: as §1, §6
as §2, with “Briefly, 1 μl of lipid solution containing 1-100 pmol of phospholipids dissolved in a mixture of choroform:methanol:water (1:2:0.8) was spotted onto Hybond-C extra membrane and allowed to dry at room temperature for 1 h.” left out

[8] = tested on: GST-DAPP1; settings: control; cited from earlier work
[9] = molecular target: human FAPP2 (accession AF380162), GST fusion (Homo sapiens, UniProt Q96JA3); assay: Protein-lipid overlay; type: binding; settings: FIG. 11
Method: as §1
Methods used are equivalent to those specified in the legend to FIG. 2.
(§7) Protein-Lipid overlay. To assess the phosphoinositide binding properties of each PH domain, a protein-lipid overlay assay was performed using the GST fusion proteins as described previously. Briefly, 1 μl of lipid solution containing 1-100 pmol of phospholipids dissolved in a mixture of choroform:methanol:water (1:2:0.8) was spotted onto Hybond-C extra membrane and allowed to dry at room temperature for 1 h. […]

[10] = molecular target: T3, human FAPP1 PH domain (residues 1 to 99, accession W32183), GST fusion (Homo sapiens, UniProt Q9HB20); assay: Surface plasmon resonance (BIACore), GST fusion binding to phosphoinositide in supported lipid monolayer; settings: supported phosphatidylcholine monolayers, 1:1 binding model, NB, no binding detected, read-out: Apparent Kd
T3 construct: made in house; host or cells: E. coli BL21 (pGEX4T-1)
Text: as §3, §4, §5

[11] = molecular target: human FAPP1 PH domain (residues 1 to 99), GST fusion (Homo sapiens, UniProt Q9HB20); assay: Protein-lipid overlay; type: binding; settings: FIG. 2 and Table 2
Method: as §1, §7

[12] = tested on: human phospholipase Cδ1 PH domain (residues 20 to 184), GST fusion; settings: control; cited from earlier work

Sequence of human FAPP2 (accession AF380162), GST fusion (Q96JA3 whole entry, the tested form may be a part): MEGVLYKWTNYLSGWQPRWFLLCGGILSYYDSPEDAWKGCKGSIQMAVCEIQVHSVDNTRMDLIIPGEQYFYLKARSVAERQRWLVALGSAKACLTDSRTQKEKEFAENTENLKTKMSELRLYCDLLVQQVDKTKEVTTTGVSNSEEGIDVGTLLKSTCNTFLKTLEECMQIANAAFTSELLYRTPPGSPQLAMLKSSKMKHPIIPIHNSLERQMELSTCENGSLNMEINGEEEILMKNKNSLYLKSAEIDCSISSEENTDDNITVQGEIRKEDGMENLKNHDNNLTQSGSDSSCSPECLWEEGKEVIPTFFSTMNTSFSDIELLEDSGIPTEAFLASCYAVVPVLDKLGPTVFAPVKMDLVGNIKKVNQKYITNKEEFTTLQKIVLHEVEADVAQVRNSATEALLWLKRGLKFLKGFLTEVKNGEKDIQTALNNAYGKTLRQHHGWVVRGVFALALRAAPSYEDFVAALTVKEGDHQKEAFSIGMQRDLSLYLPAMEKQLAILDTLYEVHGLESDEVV
Sequence of human FAPP1 PH domain (residues 1 to 99), GST fusion (Q9HB20 1-99): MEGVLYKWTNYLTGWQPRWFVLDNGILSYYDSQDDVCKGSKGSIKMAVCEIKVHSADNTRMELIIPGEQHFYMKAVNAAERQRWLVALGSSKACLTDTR
Sequence of human evectin-2 PH domain (residues 1 to 167), GST fusion (Q96CS7 1-167): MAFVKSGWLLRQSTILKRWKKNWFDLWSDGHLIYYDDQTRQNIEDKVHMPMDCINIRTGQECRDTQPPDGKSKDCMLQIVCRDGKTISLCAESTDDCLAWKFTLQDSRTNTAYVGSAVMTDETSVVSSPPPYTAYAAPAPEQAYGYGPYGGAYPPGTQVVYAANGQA
Sequence of human TAPP1 C-terminal PH domain (residues 95 to 404), GST fusion (Q9HB21 95-404): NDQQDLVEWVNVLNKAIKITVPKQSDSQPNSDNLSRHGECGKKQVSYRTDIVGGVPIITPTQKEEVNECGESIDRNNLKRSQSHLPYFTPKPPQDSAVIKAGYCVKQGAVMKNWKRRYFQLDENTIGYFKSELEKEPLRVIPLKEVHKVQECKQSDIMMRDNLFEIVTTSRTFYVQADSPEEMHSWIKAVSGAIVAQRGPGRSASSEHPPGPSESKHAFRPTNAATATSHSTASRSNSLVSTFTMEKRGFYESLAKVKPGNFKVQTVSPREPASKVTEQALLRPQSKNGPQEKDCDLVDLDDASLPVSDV
T1 sequence (Q9H4M7 15-169): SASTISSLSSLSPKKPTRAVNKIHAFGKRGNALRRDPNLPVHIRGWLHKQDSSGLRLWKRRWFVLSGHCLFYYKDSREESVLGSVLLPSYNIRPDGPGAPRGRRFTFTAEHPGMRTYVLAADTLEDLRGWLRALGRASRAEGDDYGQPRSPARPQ
T2 sequence (Q9ERS5 174-425): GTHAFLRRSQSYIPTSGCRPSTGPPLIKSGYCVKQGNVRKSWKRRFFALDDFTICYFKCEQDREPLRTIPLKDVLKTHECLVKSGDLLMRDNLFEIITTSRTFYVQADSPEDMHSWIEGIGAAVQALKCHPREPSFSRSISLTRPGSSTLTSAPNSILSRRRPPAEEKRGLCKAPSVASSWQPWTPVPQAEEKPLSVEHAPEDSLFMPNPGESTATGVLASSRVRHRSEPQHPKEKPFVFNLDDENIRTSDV
T3 sequence (Q9HB20 1-99, one chain of several): as the sequence (Q9HB20 1-99) above

Q: With phosphatidylserine as the compound, how does the lipid binding [1] read?
A: The lipid binding was “None of the PH domains whose lipid binding properties were investigated in FIG. 2, interacted”.

Q: With phospatidylinositol as the compound, how does the lipid binding [1] read?
A: The lipid binding was “None of the PH domains whose lipid binding properties were investigated in FIG. 2, interacted”.

Q: For `CCCCC/C=C\C/C=C\C/C=C\C/C=C\CCCC(=O)O[C@H](COC(=O)CCCCCCCCCCCCCCCCC)COP(=O)(O)O[C@H]1[C@H](O)[C@@H](OP(=O)(O)O)[C@H](OP(=O)(O)O)[C@@H](OP(=O)(O)O)[C@H]1O` [sn-1-stearoyl-2-arachidonyl-D-PtdIns(3,4,5)P3], which phosphoinositide binding [2] is on record?
A: The phosphoinositide binding was “did not bind”.

Q: Which lipid binding [1] does the source give for phosphatidylethanolamine here?
A: The lipid binding was “None of the PH domains whose lipid binding properties were investigated in FIG. 2, interacted”.

Q: With `CCCCCCCCCCCCCCCC(=O)OC[C@H](COP(=O)(O)O[C@@H]1[C@H](O)[C@H](OP(=O)(O)O)[C@@H](O)[C@H](O)[C@H]1O)OC(=O)CCCCCCCCCCCCCCC` [PtdIns3P] as the compound, how does the pKd [3] read?
A: Its pKd is 6.49.

Q: With `CCCCCCCCCCCCCCCC(=O)OC[C@H](COP(=O)(O)O[C@H]1[C@H](O)[C@@H](OP(=O)(O)O)[C@H](OP(=O)(O)O)[C@@H](OP(=O)(O)O)[C@H]1O)OC(=O)CCCCCCCCCCCCCCC` [PtdIns(3,4,5)P3, phospatidylinositol (3,4,5)-trisphosphate] as the compound, how does the phosphoinositide binding [2] read?
A: The phosphoinositide binding was “did not bind”.

Q: What about the phosphoinositide binding [4] of the same compound?
A: Its phosphoinositide binding is “moderate affinity”.

Q: And the phosphoinositide binding [5]?
A: Its phosphoinositide binding is “binds only”.

Q: What about the phosphoinositide binding [6] of the same compound?
A: The phosphoinositide binding was “did not bind”.

Q: What about the phosphoinositide binding [7] of the same compound?
A: The phosphoinositide binding was “did not bind”.

Q: What about the phosphoinositide binding [8] of the same compound?
A: Its phosphoinositide binding is “binds”.

Q: With phosphatidylcholine as the compound, how does the lipid binding [1] read?
A: The lipid binding was “None of the PH domains whose lipid binding properties were investigated in FIG. 2, interacted”.

Q: Which phosphoinositide binding [9] does the source give for `CCCCCCCCCCCCCCCC(=O)OC[C@H](COP(=O)(O)O[C@H]1[C@H](O)[C@@H](O)[C@H](OP(=O)(O)O)[C@@H](O)[C@H]1O)OC(=O)CCCCCCCCCCCCCCC` [PtdIns4P, phosphoinositol 4-monophosphate] here?
A: The phosphoinositide binding was “binds specifically”.

Q: What about the phosphoinositide binding ([9]; listed as PtdIns-4P) of the same compound?
A: Its phosphoinositide binding is “specifically binds”.

Q: What about the pKd [10] of the same compound?
A: The pKd was 7.70.

Q: What about the phosphoinositide binding [11] of the same compound?
A: Its phosphoinositide binding is “only binds”.

Q: What does the source list for `CCCCCCCCCCCCCCCC(=O)OC[C@H](COP(=O)(O)O[C@@H]1[C@H](O)[C@H](O)[C@@H](OP(=O)(O)O)[C@H](OP(=O)(O)O)[C@H]1O)OC(=O)CCCCCCCCCCCCCCC` [PtdIns(4,5)P2, phosphatidylinositol 4,5-bisphosphate]?
A: phosphoinositide binding [12]: binds only; phosphoinositide binding [11]: does not interact
